The first assay addresses T1, Progesterone receptor (Bos taurus, UniProt Q690N0).
T1 sequence (Q690N0 whole entry): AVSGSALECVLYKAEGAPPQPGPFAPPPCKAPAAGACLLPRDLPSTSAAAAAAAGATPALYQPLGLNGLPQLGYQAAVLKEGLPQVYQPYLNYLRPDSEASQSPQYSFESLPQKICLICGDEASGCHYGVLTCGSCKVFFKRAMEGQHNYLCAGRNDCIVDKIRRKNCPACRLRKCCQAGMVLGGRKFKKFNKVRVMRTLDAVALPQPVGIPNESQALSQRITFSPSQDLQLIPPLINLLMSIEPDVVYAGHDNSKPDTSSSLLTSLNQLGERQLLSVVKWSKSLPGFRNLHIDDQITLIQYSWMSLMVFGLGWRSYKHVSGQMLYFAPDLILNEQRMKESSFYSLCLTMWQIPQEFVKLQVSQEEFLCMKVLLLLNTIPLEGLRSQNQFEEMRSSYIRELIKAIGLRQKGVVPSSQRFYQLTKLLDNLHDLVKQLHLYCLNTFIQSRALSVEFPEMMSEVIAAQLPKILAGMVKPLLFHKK
Nature of the assay: DRUGMATRIX: Progesterone radioligand binding (ligand: [3H] R-5020). Particulars: Not Active = under 50% inhibition at 10 µM. In kind it is tissue-based, Uterus.
Mitogen-activated protein kinase 1, sequence (P28482 whole entry): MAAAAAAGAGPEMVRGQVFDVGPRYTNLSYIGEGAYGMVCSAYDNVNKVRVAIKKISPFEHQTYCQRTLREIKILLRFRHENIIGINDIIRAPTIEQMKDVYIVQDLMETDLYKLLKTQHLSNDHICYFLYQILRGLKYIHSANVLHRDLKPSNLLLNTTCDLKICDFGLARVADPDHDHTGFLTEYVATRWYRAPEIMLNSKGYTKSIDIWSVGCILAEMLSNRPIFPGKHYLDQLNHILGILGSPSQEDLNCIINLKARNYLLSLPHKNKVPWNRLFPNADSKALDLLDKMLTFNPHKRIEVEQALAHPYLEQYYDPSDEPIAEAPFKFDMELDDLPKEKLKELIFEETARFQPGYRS
In the case of `C[C@@H](O)[C@H]1C(=O)N2C(C(=O)O)=C(S[C@@H]3CN[C@H](C(=O)N(C)C)C3)[C@H](C)[C@H]12` [MEROPENEM], the IC50 entry is given as “Not Active”.

Turning to `CC[C@@H](CO)NC(=O)[C@@H]1C=C2c3cccc4c3c(cn4C)C[C@H]2N(C)C1` [METHYSERGIDE], the IC50 entry is on record as “Not Active”.

Turning to `CCN(CC)CC#CCOC(=O)C(O)(c1ccccc1)C1CCCCC1` (centres undefined) [OXYBUTYNIN], the IC50 result is “Not Active”.

As to `O=P(O)(O)C(O)(Cc1cccnc1)P(=O)(O)O` [RISEDRONIC ACID], the IC50 entry is recorded as “Not Active”.

For the compound `CC(C)(C)NC[C@H](O)COc1nsnc1N1CCOCC1` [TIMOLOL], the IC50 entry is listed as “Not Active”.

Another assay deals with T2, Neuropeptide Y receptor type 1 (Homo sapiens, UniProt P25929).
T2 sequence (P25929 whole entry): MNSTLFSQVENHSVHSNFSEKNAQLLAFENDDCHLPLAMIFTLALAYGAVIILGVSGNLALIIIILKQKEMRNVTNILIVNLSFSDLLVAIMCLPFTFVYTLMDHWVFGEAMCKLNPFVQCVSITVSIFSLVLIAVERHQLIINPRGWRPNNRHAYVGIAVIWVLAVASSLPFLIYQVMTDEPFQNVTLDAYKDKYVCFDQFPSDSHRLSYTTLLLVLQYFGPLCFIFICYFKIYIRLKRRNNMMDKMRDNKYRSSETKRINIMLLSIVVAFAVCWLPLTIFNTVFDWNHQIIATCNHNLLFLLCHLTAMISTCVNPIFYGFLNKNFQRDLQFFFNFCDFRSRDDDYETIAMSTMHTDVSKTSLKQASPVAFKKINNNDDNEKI
Experiment: not given
In kind it is cell membranes, Membrane. Particulars: sk-n-mc.
As to `C[C@@H](O)[C@H]1C(=O)N2C(C(=O)O)=C(S[C@@H]3CN[C@H](C(=O)N(C)C)C3)[C@H](C)[C@H]12` [MEROPENEM], the IC50 result is “Not Active”.

For `CC[C@@H](CO)NC(=O)[C@@H]1C=C2c3cccc4c3c(cn4C)C[C@H]2N(C)C1` [METHYSERGIDE], the IC50 result is “Not Active”.

With `CCN(CC)CC#CCOC(=O)C(O)(c1ccccc1)C1CCCCC1` (centres undefined) [OXYBUTYNIN], the IC50 entry is recorded as “Not Active”.

For `O=P(O)(O)C(O)(Cc1cccnc1)P(=O)(O)O` [RISEDRONIC ACID], the IC50 entry is on record as “Not Active”.

Consider `CC(C)(C)NC[C@H](O)COc1nsnc1N1CCOCC1` [TIMOLOL], for which the IC50 entry is listed as “Not Active”.

The target of a further assay is Aldo-keto reductase family 1 member B1 (Rattus norvegicus, UniProt P07943). Nature of the assay: biochemical. In kind it is tissue-based, Lens of camera-type eye.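 Further: inhibition of aldose reductase enzyme activity, measured with DL-glyceraldehyde as the substrate; in other assays of this panel Not Active means under 50% inhibition at 10 µM.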
Conditions: not given
Take `C[C@@H](O)[C@H]1C(=O)N2C(C(=O)O)=C(S[C@@H]3CN[C@H](C(=O)N(C)C)C3)[C@H](C)[C@H]12` [MEROPENEM]: the IC50 result is given as “Not Active”.

With `CC[C@@H](CO)NC(=O)[C@@H]1C=C2c3cccc4c3c(cn4C)C[C@H]2N(C)C1` [METHYSERGIDE], the IC50 result is listed as “Not Active”.

For the compound `CCN(CC)CC#CCOC(=O)C(O)(c1ccccc1)C1CCCCC1` (centres undefined) [OXYBUTYNIN], the IC50 entry is “Not Active”.

Regarding `O=P(O)(O)C(O)(Cc1cccnc1)P(=O)(O)O` [RISEDRONIC ACID], the IC50 entry is “Not Active”.

For the compound `CC(C)(C)NC[C@H](O)COc1nsnc1N1CCOCC1` [TIMOLOL], the IC50 result was “Not Active”.

For a further assay, the target named is T3, Nitric oxide synthase, inducible (Mus musculus, UniProt P29477).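 Further: inhibition of iNOS enzyme activity measured with L-arginine as substrate; in other assays of this panel Not Active means under 50% inhibition at 10 µM.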
T3 sequence (P29477 whole entry): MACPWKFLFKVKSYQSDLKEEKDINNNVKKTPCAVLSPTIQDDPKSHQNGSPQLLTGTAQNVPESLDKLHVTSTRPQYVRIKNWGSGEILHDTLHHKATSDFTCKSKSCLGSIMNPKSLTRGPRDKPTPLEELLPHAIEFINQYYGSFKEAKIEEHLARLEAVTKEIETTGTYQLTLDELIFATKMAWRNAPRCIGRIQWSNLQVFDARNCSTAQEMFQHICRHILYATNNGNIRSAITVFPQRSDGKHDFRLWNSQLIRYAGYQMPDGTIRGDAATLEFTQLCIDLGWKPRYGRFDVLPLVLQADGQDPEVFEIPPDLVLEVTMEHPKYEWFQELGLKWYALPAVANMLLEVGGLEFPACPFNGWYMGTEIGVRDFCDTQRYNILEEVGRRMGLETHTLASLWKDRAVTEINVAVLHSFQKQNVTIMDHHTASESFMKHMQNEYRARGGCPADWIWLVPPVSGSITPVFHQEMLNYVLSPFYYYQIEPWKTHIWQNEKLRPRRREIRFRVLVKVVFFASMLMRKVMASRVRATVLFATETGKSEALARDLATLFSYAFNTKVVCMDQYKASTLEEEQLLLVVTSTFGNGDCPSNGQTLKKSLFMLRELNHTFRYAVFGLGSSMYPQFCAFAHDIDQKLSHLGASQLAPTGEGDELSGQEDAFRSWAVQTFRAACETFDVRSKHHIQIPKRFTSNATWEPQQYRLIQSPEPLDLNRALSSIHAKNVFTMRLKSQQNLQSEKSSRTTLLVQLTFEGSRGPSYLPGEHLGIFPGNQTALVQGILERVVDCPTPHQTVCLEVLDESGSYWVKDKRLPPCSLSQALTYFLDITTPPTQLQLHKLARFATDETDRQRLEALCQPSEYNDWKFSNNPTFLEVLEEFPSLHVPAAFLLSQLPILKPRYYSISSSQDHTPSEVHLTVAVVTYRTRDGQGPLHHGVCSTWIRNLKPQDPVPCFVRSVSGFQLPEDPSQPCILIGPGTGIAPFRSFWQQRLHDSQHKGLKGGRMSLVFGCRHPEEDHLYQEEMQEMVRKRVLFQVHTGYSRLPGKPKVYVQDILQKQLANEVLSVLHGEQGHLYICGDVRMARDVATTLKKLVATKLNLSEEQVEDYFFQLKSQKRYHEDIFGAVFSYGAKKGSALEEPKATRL
Experiment: not given
Details: species or system Escherichia coli.
Conditions: not given
Regarding `C[C@@H](O)[C@H]1C(=O)N2C(C(=O)O)=C(S[C@@H]3CN[C@H](C(=O)N(C)C)C3)[C@H](C)[C@H]12` [MEROPENEM], the IC50 result is given as “Not Active”.

`CC[C@@H](CO)NC(=O)[C@@H]1C=C2c3cccc4c3c(cn4C)C[C@H]2N(C)C1` [METHYSERGIDE]: the IC50 entry is “Not Active”.

For the compound `CCN(CC)CC#CCOC(=O)C(O)(c1ccccc1)C1CCCCC1` (centres undefined) [OXYBUTYNIN], the IC50 result was “Not Active”.

With `O=P(O)(O)C(O)(Cc1cccnc1)P(=O)(O)O` [RISEDRONIC ACID], the IC50 entry is listed as “Not Active”.

As to `CC(C)(C)NC[C@H](O)COc1nsnc1N1CCOCC1` [TIMOLOL], the IC50 entry is given as “Not Active”.

A further assay addresses Mitogen-activated protein kinase 1 (Homo sapiens, UniProt P28482). Nature of the assay: DRUGMATRIX: Protein Serine/Threonine Kinase, ERK2 enzyme inhibition (substrate: Myelin Basic Protein). As to conditions: Not Active = under 50% inhibition at 10 µM. On the set-up: species or system Escherichia coli.
For `C[C@@H](O)[C@H]1C(=O)N2C(C(=O)O)=C(S[C@@H]3CN[C@H](C(=O)N(C)C)C3)[C@H](C)[C@H]12` [MEROPENEM], the IC50 entry is on record as “Not Active”.

With `CC[C@@H](CO)NC(=O)[C@@H]1C=C2c3cccc4c3c(cn4C)C[C@H]2N(C)C1` [METHYSERGIDE], the IC50 entry is given as “Not Active”.

Regarding `CCN(CC)CC#CCOC(=O)C(O)(c1ccccc1)C1CCCCC1` (centres undefined) [OXYBUTYNIN], the IC50 result is reported as “Not Active”.

Consider `O=P(O)(O)C(O)(Cc1cccnc1)P(=O)(O)O` [RISEDRONIC ACID], for which the IC50 entry is recorded as “Not Active”.

As to `CC(C)(C)NC[C@H](O)COc1nsnc1N1CCOCC1` [TIMOLOL], the IC50 result is “Not Active”.

The target of another assay is Beta-2 adrenergic receptor (Homo sapiens, UniProt P07550). Nature of the assay: DRUGMATRIX: Adrenergic beta2 radioligand binding (ligand: [3H] CGP-12177). As to conditions: cho; Not Active = under 50% inhibition at 10 µM. In kind it is cell membranes, CHO, Membrane.
Beta-2 adrenergic receptor, sequence (P07550 whole entry): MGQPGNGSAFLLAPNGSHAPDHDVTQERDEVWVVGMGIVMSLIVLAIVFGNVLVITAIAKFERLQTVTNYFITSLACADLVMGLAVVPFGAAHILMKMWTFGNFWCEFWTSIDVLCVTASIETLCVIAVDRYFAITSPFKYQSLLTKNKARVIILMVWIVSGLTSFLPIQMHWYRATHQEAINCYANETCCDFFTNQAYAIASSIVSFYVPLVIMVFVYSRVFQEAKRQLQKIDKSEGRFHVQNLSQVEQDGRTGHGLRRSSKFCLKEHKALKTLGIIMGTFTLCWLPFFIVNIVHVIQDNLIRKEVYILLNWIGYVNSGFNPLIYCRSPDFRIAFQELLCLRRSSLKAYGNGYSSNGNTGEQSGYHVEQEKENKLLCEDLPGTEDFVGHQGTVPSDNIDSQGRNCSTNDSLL
`C[C@@H](O)[C@H]1C(=O)N2C(C(=O)O)=C(S[C@@H]3CN[C@H](C(=O)N(C)C)C3)[C@H](C)[C@H]12` [MEROPENEM]: the IC50 result was “Not Active”.

Consider `CC[C@@H](CO)NC(=O)[C@@H]1C=C2c3cccc4c3c(cn4C)C[C@H]2N(C)C1` [METHYSERGIDE], for which the IC50 result is recorded as “Not Active”.

As for `CCN(CC)CC#CCOC(=O)C(O)(c1ccccc1)C1CCCCC1` (centres undefined) [OXYBUTYNIN], the IC50 entry was “Not Active”.

As for `O=P(O)(O)C(O)(Cc1cccnc1)P(=O)(O)O` [RISEDRONIC ACID], the IC50 entry is “Not Active”.

For a further assay, the target named is T4, Neuropeptide Y receptor type 2 (Homo sapiens, UniProt P49146). Further: in other assays of this panel Not Active means under 50% inhibition at 10 µM.
T4 sequence (P49146 whole entry): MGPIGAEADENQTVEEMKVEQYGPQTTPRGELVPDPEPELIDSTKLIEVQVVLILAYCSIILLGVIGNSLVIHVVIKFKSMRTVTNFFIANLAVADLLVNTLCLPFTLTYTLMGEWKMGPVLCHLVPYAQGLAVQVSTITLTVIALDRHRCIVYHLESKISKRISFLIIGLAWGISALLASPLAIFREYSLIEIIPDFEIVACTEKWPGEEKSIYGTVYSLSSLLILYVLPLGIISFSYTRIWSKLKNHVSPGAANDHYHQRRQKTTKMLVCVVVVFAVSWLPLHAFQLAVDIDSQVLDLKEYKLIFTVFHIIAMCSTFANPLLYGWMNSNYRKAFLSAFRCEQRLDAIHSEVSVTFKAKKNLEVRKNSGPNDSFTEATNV
Experiment: not given
The class given is cell membranes, Membrane. As to conditions: kan-ts.
Regarding `C[C@@H](O)[C@H]1C(=O)N2C(C(=O)O)=C(S[C@@H]3CN[C@H](C(=O)N(C)C)C3)[C@H](C)[C@H]12` [MEROPENEM], the IC50 entry is reported as “Not Active”.

Consider `CC[C@@H](CO)NC(=O)[C@@H]1C=C2c3cccc4c3c(cn4C)C[C@H]2N(C)C1` [METHYSERGIDE], for which the IC50 result was “Not Active”.

As for `CCN(CC)CC#CCOC(=O)C(O)(c1ccccc1)C1CCCCC1` (centres undefined) [OXYBUTYNIN], the IC50 result is “Not Active”.

Turning to `O=P(O)(O)C(O)(Cc1cccnc1)P(=O)(O)O` [RISEDRONIC ACID], the IC50 entry is listed as “Not Active”.

Regarding `CC(C)(C)NC[C@H](O)COc1nsnc1N1CCOCC1` [TIMOLOL], the IC50 entry is listed as “Not Active”.

The record behind these values is ChEMBL document CHEMBL1909046, “DrugMatrix in vitro pharmacology data”.
